# Tests used:
# macrophage chemotaxis = settings: cited from earlier work
# WBC264-9 cells = test: chemotaxis of WBC264-9 cells in 48-well microchemotaxis chamber; format: cell-based, human-mouse hybrid
# Protocol: (§1) Chemotaxis by the cell lines was measured in a 48-well microchemotaxis chamber (Neuro Probe, Inc., Cabin John, Md.) with a 10 μm thick Nuclepore polycarbonate membrane coated with polyvinylpyrrolidone and containing 5 μm pores as described by Aksamit, et al., J. Immunol 126:2194 (1981). Upper wells contained 50,000 cells in MEM with 10% heat-inactivated fetal calf serum, and lower wells contained attractant in RPMI-1640 (GIBCO, Grand Island, N.Y.). […] EAMS was prepared as described by Aksamit et al., supra. Cells in the chemotaxis chamber were allowed to migrate for 4 hrs at 37° C. in an atmosphere of 5% CO2 and 95% air. The top cells were wiped off the filter, and cells on the bottom were stained in Diff-Quik (Harleco, Gibbstown, N.J.). Chemotaxis was quantified by measurement of the optical density of the migrated cells.
# RAW264 cells = test: chemotaxis of RAW264 cells; format: cell-based; settings: mouse RAW264 cells
# Protocol: as §1
Molecule,inhibition of macrophage chemotaxis (macrophage chemotaxis),"chemotaxis to FMLP (WBC264-9 cells; 30 nM FMLP, cell line 9 (WBC264-9), for 20 passages, FIG. 1)","concentration of optimal chemotactic response (WBC264-9 cells; WBC264-9 cells, 4 hrs at 37° C., FIG. 2)",chemotaxis to FMLP (RAW264 cells)
pertussis toxin,potent inhibitor,–,–,–
"CSCC[C@H](NC=O)C(=O)N[C@@H](CC(C)C)C(=O)N[C@@H](Cc1ccccc1)C(=O)O [FMLP, N-formylmethionine-leucine-phenylalanine]",–,high level of chemotaxis,approximately 3×10^-8 M,do not exhibit chemotaxis

# — patent publication US4970162A, “Human-mouse hybrid cell line expressing monocyte-macrophage properties” (The United States of America as represented by the …, priority 1985, dated 1990)
